Experimental data published in patent publication US20070142348A1, “Microbicidal, prophylactic and therapeutic effect of ctc-96 on papilloma viruses” (REDOX PHARMACEUTICAL CORPORATION, AUDUBON […] AND […], priority 2003, published 2007).
Several values for one entry are separate records, joined by “and”; a condition that tells them apart may be missing. Identical values can stand only once.

Assays:
[1] = test system: Bovine Papillomavirus Type 1 (BPV-1); experiment: Inhibition of BPV-1 transformation of C127 mouse epithelial cells: pretreatment and post-treatment combined; format: cell-based
Protocol: Experiments were performed to determine if CTC-96™ can inactivate the ability of bovine papillomavirus type 1 (BPV-1) to morphologically transform C127 mouse epithelial cells in culture. Cell-free stocks of BPV-1 were treated with CTC-96™ or placebo. In order to detect the transforming ability of BPV-1, sub-confluent cultures of C127 mouse cells are infected with a standardized inoculate of BPV-1. For the positive controls, stock virus was added to the culture medium present on the cells. The presence of morphologically transformed foci was counted after 2 weeks and then again at 3 weeks. Controls included non-infected cells (with or without drug) and untreated BPV-1.
To further clarify the dynamics of CTC-96™ Papillomavirus interaction an experiment was performed to combine exposure of virus to the drug prior to cellular infection and exposure of infected cells to the drug. For this purpose BPV-1 was incubated with either CTC-96™ or placebo, diluted and then added to C127 Mouse Epithelial Cells in culture with the addition of CTC-96™ or placebo (Table 11). Addition of 10 μg/ml or 20 μg/ml CTC-96™ to the cell cultures was toxic to the cells. […] Pre-treatment with 50 μg/ml CTC-96™ but not placebo halved the foci number in the normal medium post-treatment control. Thus a small microbicidal effect is probable even at these low concentrations of CTC-96™. The main activity at these concentrations, however, is post-infection.

[2] = test system: HPV-11; experiment: Therapeutic activity of CTC-96 ointment on human condylomas induced by HPV-11, HPV-11-infected external human xenograft SCID mouse model; format: in vivo, SCID mice; details: for Graft Size Growth, Means ± SD: thrice a week for 6 weeks on the graft
Protocol: Two different dose levels of CTC-96™ (1%, 0.1%) in an ointment formulation and the vehicle alone were evaluated. SCID mice were grafted on each side of the dorsum with an HPV-11-infected foreskin fragment. The HPV-11-infected grafts were left to grow for 6 weeks before treatment was started and continued for 6 weeks. During the treatment phase, the drug was administered thrice a week, directly on the graft. Graft length, width, and height were measured every two weeks during the treatment phase. At the end of the study, the animals were sacrificed. The grafts were measured, recovered, and processed for histology. HPV infection in tissue sections is defined by the presence of two out of three of the following features: acanthosis, koilocytosis, or parakeratosis.
The Graft Size Growth (GSG) index was our primary endpoint in this evaluation of CTC-96™. […] However, there is also a marked increase in the variance of the GSG in the high dose CTC-96™ group.
In our analysis, to measure graft size growth we used a composite index that summarizes for each mouse the growth of the two grafts borne by the animal, each from a different foreskin donor. If instead we look at the growth of each individual graft, we can see that the means, medians, or variances of the graft size growth are more alike among the three treatment groups as shown in FIG. 1. The ANOVA fails to show a treatment effect on the growth of the individual grafts.

[3] = test system: HPV-11; experiment: Prophylactic (topical microbicide) activity: human grafts exposed to CTC-96 for 1 hour, washed, then exposed to HPV-11; xenograft in the SCID mouse; format: in vivo
Protocol: Given the virucidal activity of CTC-96™, a series of experiments was performed to evaluate the prophylactic activity of the compound under conditions resembling that of the use of a topical microbicide. When using a topical microbicide the target organ is first exposed to the microbicide before exposure to the virus. Various concentrations of CTC-96™ were evaluated in a model of HPV-11-infected human xenograft in the SCID mouse. The human grafts were exposed to CTC-96™ for 1 hour prior to exposure to HPV-11 and engraftment. Because CTC-96™ is virucidal, it was washed off the foreskin fragments before exposure to the virus. The HPV-11-infected grafts were allowed to grow for 12 weeks. After 12 weeks, the animals were sacrificed and the grafts recovered, measured and processed. Graft size, expressed as the composite geometric mean diameter of the two grafts borne by the animal, was the primary endpoint. Histology of the grafts was examined for the presence of HPV. Grafts were also processed for detection of HPV-11 mRNAs transcripts by reverse transcriptase-polymerase chain reaction (RT-PCR).
Grafts that are not infected by HPV proliferate poorly and tend to be eliminated by the mouse's host defenses as a foreign body. The residual fibrous tissue is a scar. In order to analyze the results properly, grafts that were truly negative (graft showing a healthy human epithelium) as well as those showing a foreign body reaction or fibrous tissue were counted as negative for HPV.
Table 7 summarizes the immunocytochemistry results for the presence of HPV capsid antigen in the grafts. As the concentration of CTC-96™ increases, the number of grafts displaying either fibrous tissue or a foreign body reaction also increases. […] Again, a strong microbicidal effect of CTC-96™ is observed.

[4] = pre-treatment 50 μg/ml CTC-96, post-treatment "μg/ml CTC-96" (figure not given)
[5] = pre-treatment 50 μg/ml CTC-96, post-treatment normal medium
[6] = pre-treatment 50 μg/ml CTC-96, post-treatment placebo
[7] = pre-treatment Placebo, post-treatment 5 μg/ml CTC-96

Structure (SMILES): CC(/C=C(/C)[O-])=NCCN=C(C)/C=C(/C)[O-].Cc1ncc[nH]1.Cc1ncc[nH]1.[Br-].[Co+3] [CTC-96]
- Focus formation ([1]; addition of 5 μg/ml CTC-96 to the cell cultures): effectively suppressed all focus formation
- Toxicity to C127 cell cultures ([1]; addition of 10 μg/ml or 20 μg/ml CTC-96 to the cell cultures): toxic
- Number of Transformed Foci, Experiment 3-1 [1, 4]: 0
- Number of Transformed Foci, Experiment 3-2 [1, 4]: 0
- Number of Transformed Foci, Experiment 3-1 [1, 5]: 71 and 46
- Number of Transformed Foci, Experiment 3-2 [1, 5]: 46 and 41
- Number of Transformed Foci, Experiment 3-1 [1, 6]: 65 and 61
- Number of Transformed Foci, Experiment 3-2 [1, 6]: 39 and 62
- Number of Transformed Foci, Experiment 3-1 [1, 7]: 0
- Number of Transformed Foci, Experiment 3-2 [1, 7]: 0
- Inhibition of the virus by pretreatment of the virus (microbicidal effect) ([1]; pretreatment of BPV-1 with 50 μg/ml CTC-96): 50-60%
- Graft Size Growth, Median ([2]; CTC-96 0.1% ointment): 60.51%
- Graft Size Growth, Means ± SD ([2]; CTC-96 0.1% ointment): 64.53 ± 41.92%
- Graft Size Growth, Median ([2]; CTC-96 1% ointment): 52.03%
- Graft Size Growth, Means ± SD ([2]; CTC-96 1% ointment): 91.39 ± 127.84%
- Effect on the growth of HPV-11-induced papillomas ([2]; mouse, in vivo): no detectable effect
- Histology: grafts Negative for HPV (percent) ([3]; CTC-96 0.05%): 30%
- Histology: grafts Positive for HPV (number) ([3]; CTC-96 0.05%): 16
- Histology: grafts Positive for HPV (percent) ([3]; CTC-96 0.05%): 73%
- Immunocytochemistry (HPV capsid antigen): grafts Negative (percent) ([3]; CTC-96 0.05%): 48%
- Immunocytochemistry (HPV capsid antigen): grafts Positive (number) ([3]; CTC-96 0.05%): 12
- Immunocytochemistry (HPV capsid antigen): grafts Positive (percent) ([3]; CTC-96 0.05%): 52%
- RT-PCR (HPV-11 mRNA): grafts Negative (number) ([3]; CTC-96 0.05%): 9
- RT-PCR (HPV-11 mRNA): grafts Negative (percent) ([3]; CTC-96 0.05%): 39%
- RT-PCR (HPV-11 mRNA): grafts Positive (number) ([3]; CTC-96 0.05%): 14
- RT-PCR (HPV-11 mRNA): grafts Positive (percent) ([3]; CTC-96 0.05%): 61%
- Immunocytochemistry (HPV capsid antigen): grafts Negative (number) ([3]; CTC-96 0.05%, foreign body/fibrous counted as negative): 11
- Histology: grafts Negative for HPV (number) ([3]; CTC-96 0.2%): 14
- Histology: grafts Negative for HPV (percent) ([3]; CTC-96 0.2%): 67%
- Histology: grafts Positive for HPV (number) ([3]; CTC-96 0.2%): 7
- Histology: grafts Positive for HPV (percent) ([3]; CTC-96 0.2%): 33%
- Immunocytochemistry (HPV capsid antigen): grafts Negative (number) ([3]; CTC-96 0.2%): 15
- Immunocytochemistry (HPV capsid antigen): grafts Negative (percent) ([3]; CTC-96 0.2%): 71%
- Immunocytochemistry (HPV capsid antigen): grafts Positive (number) ([3]; CTC-96 0.2%): 6
- Immunocytochemistry (HPV capsid antigen): grafts Positive (percent) ([3]; CTC-96 0.2%): 29%
- RT-PCR (HPV-11 mRNA): grafts Negative (number) ([3]; CTC-96 0.2%): 17
- RT-PCR (HPV-11 mRNA): grafts Negative (percent) ([3]; CTC-96 0.2%): 81%
- RT-PCR (HPV-11 mRNA): grafts Positive (number) ([3]; CTC-96 0.2%): 4
- RT-PCR (HPV-11 mRNA): grafts Positive (percent) ([3]; CTC-96 0.2%): 19%
- Histology: grafts Negative for HPV (number) ([3]; CTC-96 1%): 22
- Histology: grafts Negative for HPV (percent) ([3]; CTC-96 1%): 100%
- Histology: grafts Positive for HPV (number) ([3]; CTC-96 1%): 0
- Histology: grafts Positive for HPV (percent) ([3]; CTC-96 1%): 0%
- Immunocytochemistry (HPV capsid antigen): grafts Negative (number) ([3]; CTC-96 1%): 22
- Immunocytochemistry (HPV capsid antigen): grafts Negative (percent) ([3]; CTC-96 1%): 100%
- Immunocytochemistry (HPV capsid antigen): grafts Positive (number) ([3]; CTC-96 1%): 0
- Immunocytochemistry (HPV capsid antigen): grafts Positive (percent) ([3]; CTC-96 1%): 0%
- RT-PCR (HPV-11 mRNA): grafts Negative (number) ([3]; CTC-96 1%): 14
- RT-PCR (HPV-11 mRNA): grafts Negative (percent) ([3]; CTC-96 1%): 78%
- RT-PCR (HPV-11 mRNA): grafts Positive (number) ([3]; CTC-96 1%): 4
- RT-PCR (HPV-11 mRNA): grafts Positive (percent) ([3]; CTC-96 1%): 22%
- Graft size (composite geometric mean diameter) versus control, FIG. 2 ([3]; all CTC-96 concentrations, 12 weeks): dramatic and highly statistically significant microbicidal effect
- Histology: grafts Negative for HPV (number) ([3]; grafts pre-exposed to CTC-96 0.05%, foreign body/fibrous counted as negative): 7
